Laboratory results as given in patent US20090105206A1, “Copper Melphalan And Copper Tegafur As Anti-Tumor Agents” (priority 2004, published 2009).
Values joined by “and” are separate entries in the source; they are usually repeats but may differ in a detail not shown here. Identical values can stand only once.

Test system: OVCAR-3/P19 tumor cells
Assay: Example 6: NOD/SCID mice s.c. injected with OVCAR-3 tumor cells
Assay type: in vivo, female NOD/SCID mice
Parameters: Vol (tumor volume) Day 20 / Vol (tumor volume) Day 30 / Vol (tumor volume) Day 37: unit: cm^3
Experimental: 2×10^6 OVCAR-3/P19 tumor cells were s.c. injected into female NOD/SCID mice. The mice were treated as follows.
The treatment began with a mean tumor volume of 80 mm^3.
To level possible differences in tumor volume at the start of treatment in the individual groups and to make evident differences owing to the low absolute volumes in the treatment groups, the relative tumor volumes (RTV) have been analyzed. The relative tumor volume results from the ratio of the volume on day x and the tumor volume at the start of treatment in the same test animal. […] The tumor growth was stopped in group 2 after just 7 days. After 3 days of constant tumor volume a tumor regression began from day 30 (10th day of treatment) in the test animals treated with copper-melphalan.

[1] = Gr. 3, 7.5 mg/kg copper-melphalan i.p., individual animals
[2] = Gr. 3, 7.5 mg/kg copper-melphalan i.p., n = 8
[3] = Gr. 3, 7.5 mg/kg copper-melphalan i.p., n = 8, baseline
[4] = Gr. 3, 7.5 mg/kg copper-melphalan vs 5 mg/kg melphalan
[5] = Gr. 3, 7.5 mg/kg copper-melphalan vs 5 mg/kg melphalan, baseline
[6] = Gr. 3, 7.5 mg/kg copper-melphalan vs control (PBS)
[7] = Gr. 3, 7.5 mg/kg copper-melphalan vs control (PBS), baseline

N[C@@H](Cc1ccc(N(CCCl)CCCl)cc1)C(=O)[O-].N[C@@H](Cc1ccc(N(CCCl)CCCl)cc1)C(=O)[O-].O.O.[Cu+2] [Cu(melphalan)2]
effectiveness compared with melphalan (RTV, FIG. 9) (7.5 mg/kg copper-melphalan vs 5 mg/kg melphalan i.p.): more effective than melphalan
day from which tumor regression began (7.5 mg/kg i.p., 10th day of treatment, after 3 days of constant tumor volume): 30 days
mice with tumor regression on day 37 (Gr. 3, 7.5 mg/kg copper-melphalan): 88%
Vol (tumor volume) Day 20 (Gr. 3, 7.5 mg/kg copper-melphalan i.p. days 21-37 every 2nd day, Day 20 = start of treatment (baseline), individual animals): 0.08 and 0.11 and 0.05 and 0.04 and 0.10 and 0.02 and 0.09 and 0.12
RTV (relative tumor volume) Day 20 (Gr. 3, 7.5 mg/kg copper-melphalan i.p., baseline, individual animals): 1.00
RTV (relative tumor volume) Day 30 [1]: 1.63 and 1.36 and 2.20 and 1.75 and 1.90 and 2.50 and 1.78 and 1.83
RTV (relative tumor volume) Day 37 [1]: 2.78 and 0.63 and 0.43 and 0.78 and 0.67 and 0.70 and 0.60 and 0.51
Vol (tumor volume) Day 30 [1]: 0.13 and 0.15 and 0.11 and 0.07 and 0.19 and 0.05 and 0.16 and 0.22
Vol (tumor volume) Day 37 [1]: 0.05 (3×) and 0.14 and 0.03 and 0.07 and 0.01 and 0.06
RTV Day 30, mean [2]: 1.87
RTV Day 30, median [2]: 1.81
RTV Day 37, mean [2]: 0.89
RTV Day 37, median [2]: 0.65
Vol Day 30, mean [2]: 0.14
Vol Day 30, median [2]: 0.14
Vol Day 37, mean [2]: 0.06
Vol Day 37, median [2]: 0.05
RTV Day 20, mean [3]: 1.00
RTV Day 20, median [3]: 1.00
Vol Day 20, mean [3]: 0.08
Vol Day 20, median [3]: 0.09
RTV Day 30, mean in % of group 2 [4]: 82.1%
RTV Day 30, median in % of group 2 [4]: 76.8%
RTV Day 37, mean in % of group 2 [4]: 61.3%
RTV Day 37, median in % of group 2 [4]: 45.7%
Vol Day 30, mean in % of group 2 [4]: 80.6%
Vol Day 30, median in % of group 2 [4]: 93.3%
Vol Day 37, mean in % of group 2 [4]: 55.1%
Vol Day 37, median in % of group 2 [4]: 63.4%
RTV Day 20, mean in % of group 2 [5]: 100.0%
RTV Day 20, median in % of group 2 [5]: 100.0%
Vol Day 20, mean in % of group 2 [5]: 89.7%
Vol Day 20, median in % of group 2 [5]: 113.3%
RTV Day 30, mean in % of group 1 [6]: 31.5%
RTV Day 30, median in % of group 1 [6]: 44.8%
RTV Day 37, mean in % of group 1 [6]: 8.2%
RTV Day 37, median in % of group 1 [6]: 8.0%
Vol Day 30, mean in % of group 1 [6]: 37.6%
Vol Day 30, median in % of group 1 [6]: 50.9%
Vol Day 37, mean in % of group 1 [6]: 9.3%
Vol Day 37, median in % of group 1 [6]: 7.0%
RTV Day 20, mean in % of group 1 [7]: 100.0%
RTV Day 20, median in % of group 1 [7]: 100.0%
Vol Day 20, mean in % of group 1 [7]: 81.3%
Vol Day 20, median in % of group 1 [7]: 113.3%
statistical comparison of effectiveness with melphalan at end of treatment (day 37) (Mann-Whitney rank sum test, mean tumor volume p=0.021, mean RTV p=0.01): statistically significant higher degree of effectiveness
